Data set [1] is described as follows: Stability assay at a high temperature of 60° C. (HPLC content and related substances). Format: physicochemical. The method, then:
Condition for the assay: sampled after placing for 5 days, 10 days at a high temperature of 60° C., and the results thus obtained were compared with those obtained at day 0 by measuring related substances and contents thereof. The samples were sealed with plastic bags coated with aluminium foils during the assay. Amorphous compound A (refers to the amorphous for short hereinafter): self-prepared. Preparation method: see the preparation of amorphous compound A in the above preparative examples. The purity is 96.66%, and the batch number is 110901. The crystalline form I of compound A (refers to the crystalline form I for short hereinafter): prepared by example 1 of the Specification. The batch number is 20100315-4. Content determination is performed by external standard method using the sample at day 0 as control according to the high performance liquid chromatography in Chinese Pharmacopoeia, 2010 edition, appendix VD. Determination of related substances is performed by area normalization method according to the high performance liquid chromatography in Chinese Pharmacopoeia, 2010 edition, appendix VD. Mobile phase: A: 0.02 M diammonium phosphate (pH=5.2 adjusted by phosphoric acid):acetonitrile=95:5. • B: 0.02 M diammonium phosphate (pH=5.2 adjusted by phosphoric acid):acetonitrile=30:70. Gradient condition: see Table 1 The experimental results obtained: see Table 2

Data set [2] concerns Gram-positive and Gram-negative bacteria. As to the kind of experiment: Antibacterial activity against clinically isolated strains (overall conclusion). Format: cell-based. The settings on record: against both Gram-positive and Gram-negative bacteria. The source says: (§1) Test strains: the following clinically isolated strains were provided by public organizations.
Gram-positive bacteria: methicillin sensitive Staphylococcus aureus (MSSA), and penicillin sensitive Streptococcus pneumoniae;
(§2) Gram-negative bacteria: ESBLs negative Escherichia coli, ESBLs positive Escherichia coli, Haemophilus influenzae, and Moraxelle catarrhalis.
(§3) Test compound: the crystalline form I of compound A
(§4) Experimental method: standard agar double dilution method was adopted.

The test system of data set [3] is Moraxelle catarrhalis. Nature of the data set: Antibacterial activity, standard agar double dilution method. The note with it: clinically isolated strains. Type of data set: cell-based.
From the text: as §1, §2, §3, §4

The mark [4] stands for this setting: 60° C., day 5 compared with day 0.
Setting [5] is: 60° C., day 10 compared with day 0.

Converted amounts (≈) assume the structure as drawn.

One may read the MIC90 as an inhibitory concentration at the 90% level, which refers to growth in some studies and to a panel of isolates in others.

Take `C[C@@H](O)[C@H]1C(=O)N2C(C(=O)O)=C(S[C@@H]3CN[C@H](C(=O)NCc4ccc(S(N)(=O)=O)cc4)C3)[C@H](C)[C@H]12` [The amorphous]: the Content % in data set [1] (60° C., day 5, sample at day 0 as control) turned out to be 73.16%. In addition, in data set [1] (60° C., day 5, sealed), the “Related substance % open ring %” value was 3.328% and the “Related substance % total %” value is recorded as 20.675%. In addition, in data set [1] (setting [4]), the Content decrease % amounted to 26.84%, the “Related substance % increase open ring %” value amounted to 2.852% and the “Related substance % increase total %” value was found to be 11.38%. Also, in data set [1] (day 0), the “Related substance % open ring %” value was 0.476% and the “Related substance % total %” value is given as 9.295%.
Regarding `C[C@@H](O)[C@H]1C(=O)N2C(C(=O)O)=C(S[C@@H]3CN[C@H](C(=O)NCc4ccc(S(N)(=O)=O)cc4)C3)[C@H](C)[C@H]12` [The crystalline form I], the Antibacterial activity entry in data set [2] is “excellent antibacterial activity”. For the same compound, the “Stability as compared with the amorphous of compound A” value in data set [1] (60° C., 5 and 10 days) is “more stable”. Moreover, in data set [1] (setting [4]), the Content decrease % was 3.73%, the “Related substance % increase open ring %” value was 0.646% and the “Related substance % increase total %” value came to 0.841%. For the same compound, in data set [1] (setting [5]), the Content decrease % is recorded as 3.95%, the “Related substance % increase open ring %” value was 0.984% and the “Related substance % increase total %” value stood at 1.167%. For the same compound, the MIC90 in data set [3] was 8 ng/mL (≈ 0.0152 µM).

For the origin of these results see patent publication US20130079322A1, “CRYSTALLINE OF CARBAPENEM DERIVATIVE OR ITS HYDRATE, PREPARATION METHODS AND USES THEREOF” (priority 2010, published 2013).
